Patent US9062072B2, “Inhibitors of HIF and angiogenesis” (Emory University, priority 2010, dated 2015)
Read-outs that look alike come from different tables or passages of the source.

System: HIF-1-mediated transcription
Assay: HIF-1-mediated transcription under hypoxia, LN229-HRE-Lux luciferase reporter assay
Type: cell-based, human
Conditions: for IC50: LN229-HRE-Lux cells, hypoxia (1% O2)
Protocol: The synthesized analogues were evaluated for their potential to inhibit HIF-1-mediated transcription under hypoxia (1% O2) using a human glioma cell line LN229-HRE-Lux, which stably expresses a hypoxia-responsive luciferase reporter gene (Table 1-9). […] The compounds were tested in single (n=1) or multiple (n>1) independent experiments each carried out in quadruplicate.
LN229-HRE-luciferase human glioblastoma cells were used to perform the assay. […] 48-well plates were seeded with 3.10^4 cells per well and incubated under normoxic conditions for 24 h. Cells were then pre-treated with different concentrations of KCN-1 or its analogues for 1 h and then transferred to hypoxic conditions. After 24 h, media was aspirated, cells were lysed and reporter activity was measured in the lysate using Luciferase Assay System (Promega, Madison, Wis.) with 20/20^n Luminometer (Promega).

[1] = Homo sapiens, 24 h, Table 7, 24 h, results from single runs, read-out: IC50
[2] = Homo sapiens, 24 h, 24 h, read-out: IC50
[3] = Homo sapiens, 24 h, Table 8, 24 h, results from single runs, read-out: IC50
[4] = Homo sapiens, 24 h, Table 9, results from single runs

Compound	IC50 [1] [µM]	IC50 [3] [µM]	further results
COc1ccc(S(=O)(=O)N(Cc2ccc3c(n2)C=CC(C)(C)O3)C2CCCCCCC2)cc1OC [Compound 26h, N-Cyclooctyl-N-((2,2-dimethyl-2H-pyrano[3,2-b]pyridin-6-yl)methyl)-3,4-dimethoxybenzenesulfonamide]	0.7	–	–
CC1(C)C=Cc2nc(CN(c3ccccc3)S(=O)(=O)C3CCCCC3)ccc2O1 [Compound 26k, N-((2,2-Dimethyl-2H-pyrano[3,2-b]pyridin-6-yl)methyl)-N-phenylcyclohexanesulfonamide]	–	–	IC50 (Homo sapiens, 24 h, Table 8, results from single runs): 0.4 µM
CC(C)S(=O)(=O)N(Cc1ccc2c(n1)C=CC(C)(C)O2)c1ccccc1 [Compound 26l, N-((2,2-Dimethyl-2H-pyrano[3,2-b]pyridin-6-yl)methyl)-N-phenylpropane-2-sulfonamide]	–	13.4	–
CC1(C)C=Cc2nc(CN(c3ccccc3)S(=O)(=O)C3CC3)ccc2O1 [Compound 26m, N-((2,2-Dimethyl-2H-pyrano[3,2-b]pyridin-6-yl)methyl)-N-phenylcyclopropanesulfonamide]	–	> 25	–
CCCCS(=O)(=O)N(Cc1ccc2c(n1)C=CC(C)(C)O2)c1ccccc1 [Compound 26n, N-((2,2-Dimethyl-2H-pyrano[3,2-b]pyridin-6-yl)methyl)-N-phenylbutane-1-sulfonamide]	–	5	–
CCCS(=O)(=O)N(Cc1ccc2c(n1)C=CC(C)(C)O2)c1ccccc1 [Compound 26o, N-((2,2-Dimethyl-2H-pyrano[3,2-b]pyridin-6-yl)methyl)-N-phenylpropane-1-sulfonamide]	–	6.4	–
CC(C)CS(=O)(=O)N(Cc1ccc2c(n1)C=CC(C)(C)O2)c1ccccc1 [Compound 26p, N-((2,2-Dimethyl-2H-pyrano[3,2-b]pyridin-6-yl)methyl)-2-methyl-N-phenylpropane-1-sulfonamide]	–	0.9	–
COc1ccc(S(=O)(=O)N(Cc2cc3c(cn2)OC(C)(C)C=C3)c2ccccc2)cc1 [Compound 36a, N-((2,2-Dimethyl-2H-pyrano[2,3-c]pyridin-6-yl)methyl)-4-methoxy-N-phenylbenzenesulfonamide]	–	–	IC50 (Homo sapiens, 24 h, Table 9, 24 h, results from single runs, read-out: IC50): 1.4 µM; IC50 [2]: 1.42 µM
CC1(C)C=Cc2cc(CN(c3ccccc3)S(=O)(=O)c3ccc([N+](=O)[O-])cc3)ncc2O1 [Compound 36b, N-((2,2-Dimethyl-2H-pyrano[2,3-c]pyridin-6-yl)methyl)-4-nitro-N-phenylbenzenesulfonamide]	–	–	IC50 [4]: 1.8 µM; IC50 (Homo sapiens, 24 h): 1.8 µM
CC(C)c1ccc(S(=O)(=O)N(Cc2cc3c(cn2)OC(C)(C)C=C3)C2CCCCC2)cc1 [Compound 36c, N-Cyclohexyl-N-((2,2-dimethyl-2H-pyrano[2,3-c]pyridin-6-yl)methyl)-4-isopropylbenzenesulfonamide]	–	–	IC50 [4]: 1.1 µM; IC50 (Homo sapiens, 24 h): 1.08 µM
COc1ccc(S(=O)(=O)N(Cc2cc3c(cn2)OC(C)(C)C=C3)C2CCCCC2)cc1OC [Compound 36d, N-Cyclohexyl-N-((2,2-dimethyl-2H-pyrano[2,3-c]pyridin-6-yl)methyl)-3,4-dimethoxybenzenesulfonamide]	–	–	IC50 [4]: 5.8 µM
COc1ccc(S(=O)(=O)N(Cc2ccc3c(c2)C=CC(C)(C)O3)c2ccccc2)cc1OC [KCN-1, N-((2,2-dimethyl-2H-chromen-6-yl)methyl)-3,4-dimethoxy-N-phenylbenzenesulfonamide, reference compound]	–	–	IC50 (Homo sapiens, n=26, read-out: IC50): 0.7 ± 0.4 µM

Second part, led by results:

IC50 [1] [µM]	IC50 [3] [µM]	Compound	further results
> 25	–	COc1ccc(N(Cc2ccc3c(n2)C=CC(C)(C)O3)S(=O)(=O)c2ccc(OC)c(OC)c2)cc1OC [Compound 26c, N-(3,4-Dimethoxyphenyl)-N-((2,2-dimethyl-2H-pyrano[3,2-b]pyridin-6-yl)methyl)-3,4-dimethoxybenzenesulfonamide]	–
0.6	–	COc1ccc(S(=O)(=O)N(Cc2ccc3c(n2)C=CC(C)(C)O3)C2CCCC2)cc1OC [Compound 26d, N-Cyclopentyl-N-((2,2-dimethyl-2H-pyrano[3,2-b]pyridin-6-yl)methyl)-3,4-dimethoxybenzenesulfonamide]	–
0.8	–	COc1ccc(S(=O)(=O)N(Cc2ccc3c(n2)C=CC(C)(C)O3)C2CCCCC2)cc1OC [Compound 26e, N-Cyclohexyl-N-((2,2-dimethyl-2H-pyrano[3,2-b]pyridin-6-yl)methyl)-3,4-dimethoxybenzenesulfonamide]	–
6.6	–	COc1ccc(S(=O)(=O)N(Cc2ccc3c(n2)C=CC(C)(C)O3)C2CCCCCC2)cc1OC [Compound 26g, N-Cycloheptyl-N-((2,2-dimethyl-2H-pyrano[3,2-b]pyridin-6-yl)methyl)-3,4-dimethoxybenzenesulfonamide]	–
0.25	–	COc1ccc(S(=O)(=O)N(Cc2ccc3c(n2)C=CC(C)(C)O3)C2CCC2)cc1OC [Compound 26i, N-Cyclobutyl-N-((2,2-dimethyl-2H-pyrano[3,2-b]pyridin-6-yl)methyl)-3,4-dimethoxybenzenesulfonamide]	IC50 [2]: 0.25 µM; fold higher potency than KCN-1 (IC50 compared with KCN-1, LN229-HRE-Lux reporter assay): ~3 fold; IC50 (24 h, read-out: IC50): 0.4 µM
5.7	–	COc1ccc(S(=O)(=O)N(Cc2ccc3c(n2)C=CC(C)(C)O3)c2ccc(F)cc2)cc1OC [Compound 26j, N-((2,2-dimethyl-2H-pyrano[3,2-b]pyridin-6-yl)methyl)-N-(4-fluorophenyl)-3,4-dimethoxybenzenesulfonamide]	–
–	3.4	CC1(C)C=Cc2nc(CN(c3ccccc3)S(=O)(=O)c3ccc(-c4ccccc4)cc3)ccc2O1 [Compound 26q, N-((2,2-Dimethyl-2H-pyrano[3,2-b]pyridin-6-yl)methyl)-N-phenylbiphenyl-4-sulfonamide]	–
–	0.9	CC1(C)C=Cc2nc(CN(c3ccccc3)S(=O)(=O)c3cccc4cccnc34)ccc2O1 [Compound 26s, N-((2,2-Dimethyl-2H-pyrano[3,2-b]pyridin-6-yl)methyl)-N-phenylquinoline-8-sulfonamide]	IC50 [2]: 0.9 µM
–	0.9	CC1(C)C=Cc2nc(CN(c3ccccc3)S(=O)(=O)c3ccc4c(c3)OCCO4)ccc2O1 [Compound 26t, N-((2,2-dimethyl-2H-pyrano[3,2-b]pyridin-6-yl)methyl)-N-phenyl-2,3-dihydrobenzo[b][1,4]dioxine-6-sulfonamide]	–
